Assay results: PMC5112673, “A novel pyruvate kinase and its application in lactic acid production under oxygen deprivation in Corynebacterium glutamicum” (BMC Biotechnology, 2016)
Like-named read-outs stand apart in the source and are kept apart here.

System: T1, Pyk2
T1 construct: full length, pET-28a N-terminal His-tag (removable by thrombin; tagged and cut similarly active), E. coli BL21(DE3), subunit 67,572 Da, homohexamer 430,881 Da by gel filtration
Test: coupled L-lactate dehydrogenase / NADH assay, […] nm, allosteric sigmoidal fit
Type: biochemical, Corynebacterium glutamicum
Details: 5 mM MnSO4, 100 mM KCl, 100 mM Tris-HCl pH 7.4, 25°C, no effector, read-out: S 0.5

Km (5 mM PEP) [µM] | Km (2 mM ADP) [µM] | SMILES
330 ± 30 |  | Nc1ncnc2c1ncn2[C@@H]1O[C@H](COP(=O)(O)OP(=O)(O)O)[C@@H](O)[C@H]1O [ADP]
 | 4580 ± 740 | C=C(OP(=O)(O)O)C(=O)O [PEP]
